System: Colo205 human colon carcinoma cell line
Experiment: In vitro tumor cell proliferation assay (MTS, CellTiter 96 Aqueous One Solution)
Assay type: cell-based
Conditions: COLO 205, Colo205 cells, 72 hours compound exposure, MTS absorbance at 490 nm, read-out: IC50 (concentration of test compound required to inhibit proliferation of 50% of the cells)
Method: In Vitro Tumor Cell Proliferation Assay
The adherent H460 human non-small cell lung carcinoma and Colo205 human colon carcinoma cell lines were purchased from the American Type and Culture Collection (ATCC, Manassas, Va.) and maintained in RPMI-1640 growth media supplemented with 10% heat inactivated fetal bovine serum (Gibco, Invitrogen Corp. Grand Island, N.Y.). At 37° C. in a humidified atmosphere of 5% CO2.
The CellTiter 960 Aqueous One Solution kit, MTS, (Promega, Madison, Wis.) was used to measure proliferation of tumor cell lines in vitro. This method monitors the bioreduction of a tetrazolium dye as a measure of cell viability. On Day 0, exponentially growing cells were trypsinized, resuspended in RPMI-1640 growth media supplemented with 10% FCS, 100 u/ml of penicillin G and 100 ug/ml of streptomycin sulfate, and seeded at 2000 cells per well into 96 well microtiter plates. Cells were incubated overnight in a humidified atmosphere of 5% CO2 at 37° C. On Day 1, serial dilutions of compounds were prepared at 2× the finial assay concentration. One hundred microliters of 2× solution was added to test wells in duplicate and control wells received no test compound. The final drug concentration ranged from 0 to 10-20 um in a 5 point dose-response curve. Cells were incubated in the presence of test compounds in a humidified atmosphere of 5% CO2 at 37° C. for 72 hours. After 72 hours of compound exposure, 40 ul of Promega CellTiter 960 Aqueous One Solution was added to each well and absorbance at 490 n-M was measured using a multi-well plate reader. Percent inhibition of proliferation was calculated using the following formula: 100×(1−Absorbancetreated−Background/(Absorbancecontrol−Background)
Absorbancetreated=absorbance at 490 nm in test wells, cells with test compound
Absorbancecontrol=absorbance at 490 nm in control wells, cells with no test compound
Background=absorbance 490 nm in wells containing media and no cells
The concentration of test compound required to inhibit proliferation of 50% of the cells (IC50) was determined by linear regression analysis.
Representative compounds of the invention were tested in the above-described Colo205 human colon carcinoma cell line in vitro assay and found to inhibit human colon carcinoma cell proliferation, and are summarized as follows: […]

`N#Cc1ccccc1N1CCN(c2c(F)cc3c(=O)c(C(=O)O)cn(-c4ccc(CN5CCCC5)cc4F)c3c2Cl)CC1` [Example 39, 8-chloro-7-[4-(2-cyanophenyl)piperazin-1-yl]-6-fluoro-1-[2-fluoro-4-(pyrrolidin-1-ylmethyl)phenyl]-4-oxo-1,4-dihydroquinoline-3-carboxylic acid] and `N#Cc1cccnc1N1CCN(c2c(F)cc3c(=O)c(C(=O)O)cn(-c4ccc(CN5CCCC5)cc4F)c3c2Cl)CC1` [Example 45, 8-chloro-7-[4-(3-cyanopyridin-2-yl)piperazin-1-yl]-6-fluoro-1-[2-fluoro-4-(pyrrolidin-1-ylmethyl)phenyl]-4-oxo-1,4-dihydroquinoline-3-carboxylic acid] cannot be ordered by IC50: under 500 nM for the first, under 500 nM for the second.

`O=C(O)c1cn(-c2ccc(CN3CCCC3)cc2F)c2c(Cl)c(N3CCN(c4ncccn4)CC3)c(F)cc2c1=O` [Example 40, 8-chloro-6-fluoro-1-[2-fluoro-4-(pyrrolidin-1-ylmethyl)phenyl]-4-oxo-7-(4-pyrimidin-2-ylpiperazin-1-yl)-1,4-dihydroquinoline-3-carboxylic acid] and `Cc1cccnc1N1CCN(c2c(F)cc3c(=O)c(C(=O)O)cn(-c4ccc(CN5CCCC5)cc4F)c3c2Cl)CC1` [Example 44, 8-chloro-6-fluoro-1-[2-fluoro-4-(pyrrolidin-1-ylmethyl)phenyl]-7-[4-(3-methylpyridin-2-yl)piperazin-1-yl]-4-oxo-1,4-dihydroquinoline-3-carboxylic acid] cannot be ordered by IC50: under 500 nM for the first, under 500 nM for the second.

`O=C(O)c1cn(-c2ccc(CN3CCCC3)cc2F)c2c(Cl)c(N3CCN(c4ccc(F)cc4)CC3)c(F)cc2c1=O` [Example 41, 8-chloro-6-fluoro-7-[4-(4-fluorophenyl)-piperazin-1-yl]-1-[2-fluoro-4-(pyrrolidin-1-ylmethyl)phenyl]-4-oxo-1,4-dihydroquinoline-3-carboxylic acid] and `O=C(O)c1cn(-c2ccc(CN3CCCC3)cc2F)c2c(Cl)c(N3CCN(c4ccc(Cl)cc4)CC3)c(F)cc2c1=O` [Example 42, 8-chloro-7-[4-(4-chlorophenyl)piperazin-1-yl]-6-fluoro-1-[2-fluoro-4-(pyrrolidin-1-ylmethyl)phenyl]-4-oxo-1,4-dihydroquinoline-3-carboxylic acid] cannot be ordered by IC50: under 500 nM for the first, under 500 nM for the second.

Compared with `O=C(O)c1cn(-c2ccc(CN3CCCC3)cc2F)c2c(Cl)c(N3CCN(c4ccccc4)CC3)c(F)cc2c1=O` [Example 43, 8-chloro-6-fluoro-1-[2-fluoro-4-(pyrrolidin-1-ylmethyl)phenyl]-4-oxo-7-(4-phenylpiperazin-1-yl)-1,4-dihydroquinoline-3-carboxylic acid], `O=C(O)c1cn(-c2ccc(CN3CCCC3)cc2F)c2c(Cl)c(N3CCN(c4ccccn4)CC3)c(F)cc2c1=O` [Example 46, 8-chloro-6-fluoro-1-[2-fluoro-4-(pyrrolidin-1-ylmethyl)phenyl]-4-oxo-7-(4-pyridin-2-ylpiperazin-1-yl)-1,4-dihydroquinoline-3-carboxylic acid] is higher in IC50: under 500 nM for the first, 500 to 2000 nM for the second. The first is the more potent here.

First: N#Cc1ccc(N2CCN(c3c(F)cc4c(=O)c(C(=O)O)cn(-c5ccc(CN6CCCC6)cc5F)c4c3Cl)CC2)nc1 [Example 47, 8-chloro-7-[4-(5-cyanopyridin-2-yl)piperazin-1-yl]-6-fluoro-1-[2-fluoro-4-(pyrrolidin-1-ylmethyl)phenyl]-4-oxo-1,4-dihydroquinoline-3-carboxylic acid]
Second: N#Cc1ccc(N2CCN(c3c(F)cc4c(=O)c(C(=O)O)cn(-c5ccc(CN6CCCC6)cc5F)c4c3Cl)CC2)cc1 [Example 48, 8-chloro-7-[4-(4-cyanophenyl)piperazin-1-yl]-6-fluoro-1-[2-fluoro-4-(pyrrolidin-1-ylmethyl)phenyl]-4-oxo-1,4-dihydroquinoline-3-carboxylic acid]
The IC50 of the first is higher: 500 to 2000 nM for the first, under 500 nM for the second.

First: CON(C)Cc1ccc(-n2cc(C(=O)O)c(=O)c3cc(F)c(N4CCN(c5ccccn5)CC4)c(Cl)c32)cc1 [Example 49, 8-chloro-6-fluoro-1-(4-{[methoxy(methyl)-amino]methyl}phenyl)-4-oxo-7-(4-pyridin-2-ylpiperazin-1-yl)-1,4-dihydroquinoline-3-carboxylic acid]
Second: COCCN(C)Cc1ccc(-n2cc(C(=O)O)c(=O)c3cc(F)c(N4CCN(c5ccccn5)CC4)c(Cl)c32)cc1 [Example 55]
The IC50 of the first is higher: 2000 to 20000 nM for the first, 500 to 2000 nM for the second. The second is the more potent here.

`CON(C)Cc1ccc(-n2cc(C(=O)O)c(=O)c3cc(F)c(N4CCN(c5ncccn5)CC4)c(Cl)c32)cc1` [Example 50, 8-chloro-6-fluoro-1-(4-{[methoxy(methyl)-amino]methyl}phenyl)-4-oxo-7-(4-pyrimidin-2-ylpiperazin-1-yl)-1,4-dihydroquinoline-3-carboxylic acid] and `CON(C)Cc1ccc(-n2cc(C(=O)O)c(=O)c3cc(F)c(N4CCN(c5ncccc5C#N)CC4)c(Cl)c32)cc1` [Example 54, 8-chloro-7-[4-(3-cyanopyridin-2-yl)piperazin-1-yl]-6-fluoro-1-(4-{[methoxy(methyl)amino]methyl}phenyl)-4-oxo-1,4-dihydroquinoline-3-carboxylic acid] fall in the same range of IC50: 2000 to 20000 nM for the first, 2000 to 20000 nM for the second.

`CON(C)Cc1ccc(-n2cc(C(=O)O)c(=O)c3cc(F)c(N4CCN(c5ccc(F)cc5)CC4)c(Cl)c32)cc1` [Example 51, 8-chloro-6-fluoro-7-[4-(4-fluorophenyl)-piperazin-1-yl]-1-(4-{[methoxy(methyl)amino]methyl}phenyl)-4-oxo-1,4-dihydroquinoline-3-carboxylic acid] and `CON(C)Cc1ccc(-n2cc(C(=O)O)c(=O)c3cc(F)c(N4CCN(c5ccc(Cl)cc5)CC4)c(Cl)c32)cc1` [Example 52, 8-chloro-7-[4-(4-chlorophenyl)piperazin-1-yl]-6-fluoro-1-(4-{[methoxy(methyl)amino]methyl}phenyl)-4-oxo-1,4-dihydroquinoline-3-carboxylic acid] fall in the same range of IC50: 2000 to 20000 nM for the first, 2000 to 20000 nM for the second.

Compared with `CON(C)Cc1ccc(-n2cc(C(=O)O)c(=O)c3cc(F)c(N4CCN(c5ccccc5C#N)CC4)c(Cl)c32)cc1` [Example 53, 8-chloro-7-[4-(2-cyanophenyl)piperazin-1-yl]-6-fluoro-1-(4-{[methoxy(methyl)amino]methyl}phenyl)-4-oxo-1,4-dihydroquinoline-3-carboxylic acid], `CN(Cc1ccc(-n2cc(C(=O)O)c(=O)c3cc(F)c(N4CCN(c5ccccn5)CC4)c(Cl)c32)cc1)C1CCCCC1` [Example 61, 8-chloro-1-(4-{[cyclohexyl(methyl)amino]-methyl}phenyl)-6-fluoro-4-oxo-7-(4-pyridin-2-ylpiperazin-1-yl)-1,4-dihydroquinoline-3-carboxylic acid] is lower in IC50: 2000 to 20000 nM for the first, under 500 nM for the second.

`O=C(O)c1cn(-c2ccc(CNC3CCCC3)cc2)c2c(Cl)c(N3CCN(c4ccccn4)CC3)c(F)cc2c1=O` [Example 56, 8-chloro-1-{4-[(cyclopentylamino)-methyl]phenyl}-6-fluoro-4-oxo-7-(4-pyridin-2-ylpiperazin-1-yl)-1,4-dihydroquinoline-3-carboxylic acid] and `O=C(O)c1cn(-c2ccc(CNC3CCC3)cc2)c2c(Cl)c(N3CCN(c4ccccn4)CC3)c(F)cc2c1=O` [Example 58, 8-chloro-1-{4-[(cyclobutylamino)methyl]-phenyl}-6-fluoro-4-oxo-7-(4-pyridin-2-ylpiperazin-1-yl)-1,4-dihydroquinoline-3-carboxylic acid] cannot be ordered by IC50: under 500 nM for the first, under 500 nM for the second.

`O=C(O)c1cn(-c2ccc(CNC3CCCC3)cc2)c2c(Cl)c(N3CCN(c4ncccn4)CC3)c(F)cc2c1=O` [Example 57, 8-chloro-1-{4-[(cyclopentylamino)methyl]-phenyl}-6-fluoro-4-oxo-7-(4-pyrimidin-2-ylpiperazin-1-yl)-1,4-dihydroquinoline-3-carboxylic acid] and `O=C(O)c1cn(-c2ccc(CNC3CC3)cc2)c2c(Cl)c(N3CCN(c4ncccn4)CC3)c(F)cc2c1=O` [Example 60, 8-chloro-1-{4-[(cyclopropylamino)methyl]-phenyl}-6-fluoro-4-oxo-7-(4-pyrimidin-2-ylpiperazin-1-yl)-1,4-dihydroquinoline-3-carboxylic acid] cannot be ordered by IC50: under 500 nM for the first, under 500 nM for the second.

`O=C(O)c1cn(-c2ccc(CNC3CC3)cc2)c2c(Cl)c(N3CCN(c4ccccn4)CC3)c(F)cc2c1=O` [Example 59, 8-chloro-1-{4-[(cyclopropylamino)-methyl]phenyl}-6-fluoro-4-oxo-7-(4-pyridin-2-ylpiperazin-1-yl)-1,4-dihydroquinoline-3-carboxylic acid] and `CN(Cc1ccc(-n2cc(C(=O)O)c(=O)c3cc(F)c(N4CCN(c5ncccn5)CC4)c(Cl)c32)cc1)C1CCCCC1` [Example 62, 8-chloro-1-(4-{[cyclohexyl(methyl)amino]-methyl}phenyl)-6-fluoro-4-oxo-7-(4-pyrimidin-2-ylpiperazin-1-yl)-1,4-dihydroquinoline-3-carboxylic acid] cannot be ordered by IC50: under 500 nM for the first, under 500 nM for the second.

Source: patent publication US20070213339A1 (Bayer Pharmaceuticals Corporation, priority 2004, published 2007)
